Patent US20260041649A1, “ANTI-INFLAMMATORY AGENT” (WATANABE OYSTER LABORATORY, CO., LTD., priority 2023, published 2026)

Legend:
[1] = system: mouse macrophage RAW264.7 cells; assay: Cell death of subconfluent RAW264.7 cells (cell count); type: cell-based; conditions: for death in RAW264.7 cells: DHMBA 1, 10, 100 or 1000 μM, subconfluent cells
Experimental: FIG. 4 is an explanatory diagram describing that the marine factor 3,5-dihydroxy-4-methoxy benzyl alcohol (DHMBA) stimulates cell death in mouse macrophage RAW264.7 cells. RAW264.7 cells (1×10^5 cells/ml/well in a 24-well plate) were cultured in DMEM containing 10% FBS, 1% P/S, and 1% fungizone for 3 days until they reached subconfluence. The cells were cultured for another 24 hours (FIG. 4A) or 48 hours (FIG. 4B) in the control group (1% ethanol; 0 μM DHMBA as final concentration) and in the DHMBA-treated group (0.1, 1, 10, 100, or 1000 μM). In FIG. 4C, subconfluent RAW264.7 cells were cultured for another 48 hours with a caspase-3 inhibitor (10 μM) in the control group (1% ethanol; 0 μM DHMBA as final concentration) and the DHMBA-treated group (1 or 10 μM). After the culture, the number of cells attached to the dish was counted. Data are presented as the mean±SD from a total of 8 wells in 2 plates using different cell preparations. In FIG. 4D, to measure the expression level of caspase-3 or cleaved caspase-3, […] (1×10^6 cells/10 ml medium in a 100 mm dish) were cultured for 3 days in a DMEM culture medium in the control group (1% ethanol; 0 μM DHMBA as final concentration) and the DHMBA-treated group (10 μM). After the culture, cell lysates were obtained for Western blotting assay. In FIG. 4E, band intensities are shown as fold increase over the control. Data are presented as the mean±SD of values obtained from 4 dishes using different cell preparations. *: Significant difference (p<0.001) between the control group and the DHMBA-treated group. Statistical analysis was performed using 1-way ANOVA with Tukey-Kramer post-test.
RAW264.7 cells (1×10^5/ml/well in a 24-well plate) were cultured for 3 days in a DMEM culture medium containing 10% FBS, 1% P/S, and 1% fungizone using a 24-well plate. […]
(§1) The number of viable cells was counted under a microscope (Olympus MTV-3) using a hemocytometer (Sigma-Aldrich) and a cell counter (H-102P, Line Seiki Co., Ltd., Tokyo, Japan).

[2] = system: RAW264.7 cells cultured with LPS; assay: Cell death of RAW264.7 cells cultured with LPS; type: cell-based, mouse; conditions: DHMBA 1 or 10 μM, LPS 100 ng/ml, 48 hours, subconfluent cells
Experimental: In FIG. 5A, to examine the effect on cell proliferation, RAW264.7 cells (1×10^5/ml/well) were cultured for 3 days in a DMEM culture medium containing 10% FBS, 1% P/S, and 1% fungizone in the control group (1% ethanol as final concentration) with or without LPS (1, 10, 50, 100, 500 ng/ml). In FIG. 5B, cells (1×10^5/ml per well) were cultured for 3 days in a DMEM culture medium containing 10% FBS, 1% P/S, and 1% fungizone in the DHMBA-treated group (1 or 10 μM) with or without LPS (100 ng/ml). In FIG. 5C, to examine the effect on cell death, cells that had reached subconfluence after 3 days of culture were cultured for another 48 hours in the control group (1% ethanol) with or without LPS (1, 10, 50, 100, or 500 ng/ml). […] After the culture, the number of cells attached to the dish was counted. […]
In an additional experiment, to determine the effect of DHMBA on RAW264.7 cell death, RAW264.7 cells were cultured in the presence of LPS. […] After the culture, the cells were detached with a Ca^2+/Mg^2+ free PBS solution with 0.05% trypsin/EDTA (0.1 ml per well) as described in the “Cell proliferation assay” section, and the cells were counted as described in the “Cell count” section below. […]
as §1

Q: For `COc1c(O)cc(CO)cc1O` [DHMBA, 3,5-dihydroxy-4-methoxybenzyl alcohol], which “death in RAW264.7 cells” value ([1]; 24 hours) is on record?
A: promoted

Q: And the “death in RAW264.7 cells” value ([1]; 48 hours)?
A: promoted

Q: What about the “stimulatory effect on death of RAW264.7 cells in presence of caspase-3 inhibitor” value ([1]; DHMBA 1 or 10 μM, caspase-3 inhibitor 10 μM, 48 hours) of the same compound?
A: blocked

Q: And the “effect on RAW264.7 cell death in the presence of LPS” value [2]?
A: exhibited
